Test results taken from patent publication US20260028365A1 (BIOGEN MA INC., priority 2022, published 2026).
Like-named read-outs stand apart in the source and are kept apart here.

Key:
[1] = molecular target: Tyk2 (Homo sapiens (Human), UniProt P29597); experiment: pSTAT4 Cell Assay (MSD, NK92 cells); type: cell-based
[2] = molecular target: JH2 domain of human Tyk2 (Homo sapiens (Human), UniProt P29597); experiment: JH2 Biochemical Assay (TR-FRET probe displacement); type: binding
[3] = TR-FRET probe displacement, JH2 domain of human Tyk2
[4] = TR-FRET probe displacement, JH2 domain
[5] = JH2 domain of human Tyk2, TR-FRET probe displacement

Sequence of JH2 domain of human Tyk2 (P29597 575-876): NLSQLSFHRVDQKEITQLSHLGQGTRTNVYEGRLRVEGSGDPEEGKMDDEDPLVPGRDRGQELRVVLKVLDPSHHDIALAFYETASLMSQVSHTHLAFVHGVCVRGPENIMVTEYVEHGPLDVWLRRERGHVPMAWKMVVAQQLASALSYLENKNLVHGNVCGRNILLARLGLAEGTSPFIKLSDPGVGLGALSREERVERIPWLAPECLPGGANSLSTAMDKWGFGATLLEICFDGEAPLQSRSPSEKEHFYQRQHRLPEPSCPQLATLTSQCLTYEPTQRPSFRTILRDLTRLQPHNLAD
Sequence of Tyk2 (P29597 whole entry, the tested form may be a part): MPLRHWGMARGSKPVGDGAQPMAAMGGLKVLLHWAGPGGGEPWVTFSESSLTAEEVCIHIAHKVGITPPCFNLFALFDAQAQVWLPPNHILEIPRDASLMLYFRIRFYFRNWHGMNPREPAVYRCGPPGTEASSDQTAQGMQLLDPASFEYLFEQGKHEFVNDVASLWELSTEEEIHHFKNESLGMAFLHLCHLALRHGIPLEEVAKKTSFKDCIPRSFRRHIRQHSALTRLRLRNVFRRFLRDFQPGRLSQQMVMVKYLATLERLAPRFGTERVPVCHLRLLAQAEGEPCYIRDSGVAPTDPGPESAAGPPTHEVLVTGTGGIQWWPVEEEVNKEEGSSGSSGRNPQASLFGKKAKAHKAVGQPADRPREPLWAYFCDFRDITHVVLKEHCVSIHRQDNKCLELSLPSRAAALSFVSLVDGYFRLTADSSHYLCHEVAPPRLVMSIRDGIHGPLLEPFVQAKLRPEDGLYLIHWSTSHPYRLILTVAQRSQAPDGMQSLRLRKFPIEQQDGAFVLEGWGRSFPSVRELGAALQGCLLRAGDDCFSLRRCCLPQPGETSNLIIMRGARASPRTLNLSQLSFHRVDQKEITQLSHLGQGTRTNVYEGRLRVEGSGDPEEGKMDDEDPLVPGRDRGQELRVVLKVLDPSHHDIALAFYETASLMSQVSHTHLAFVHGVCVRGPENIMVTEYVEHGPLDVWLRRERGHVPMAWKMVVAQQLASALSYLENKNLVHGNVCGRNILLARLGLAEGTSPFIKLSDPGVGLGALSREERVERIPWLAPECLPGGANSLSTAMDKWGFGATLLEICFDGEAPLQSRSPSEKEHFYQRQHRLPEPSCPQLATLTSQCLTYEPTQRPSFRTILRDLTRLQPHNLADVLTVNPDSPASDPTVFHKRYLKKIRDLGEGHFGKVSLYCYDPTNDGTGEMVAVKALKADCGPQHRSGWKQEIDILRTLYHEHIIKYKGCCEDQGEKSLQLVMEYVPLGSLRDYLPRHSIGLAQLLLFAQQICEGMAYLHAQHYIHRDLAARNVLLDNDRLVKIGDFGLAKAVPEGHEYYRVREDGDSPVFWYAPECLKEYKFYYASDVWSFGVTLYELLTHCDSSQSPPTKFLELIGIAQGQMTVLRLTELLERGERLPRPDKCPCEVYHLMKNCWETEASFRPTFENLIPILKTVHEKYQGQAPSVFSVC

SMILES	IC50 ([1]; MSD) [nM]	IC50 [2, 3] [nM]	IC50 [1] [nM]	IC50 [2, 4] [nM]	IC50 [2, 5] [nM]
CC(=O)Nc1cc(Nc2cc(C)nc(C(C)(F)F)n2)c(-c2cc(C#N)cnn2)cn1 [Example 286, N-(5-(5-cyanopyridazin-3-yl)-4-((2-(1,1-difluoroethyl)-6-methylpyrimidin-4-yl)amino)pyridin-2-yl)acetamide]	100 to 1000	≤ 10			
COCc1nsc(-c2cnc(NC(C)=O)cc2Nc2cc(C)nc(C(C)(F)F)n2)n1 [Example 762, N-(4-((2-(1,1-difluoroethyl)-6-methylpyrimidin-4-yl)amino)-5-(3-(methoxymethyl)-1,2,4-thiadiazol-5-yl)pyridin-2-yl)acetamide]			≤ 10	≤ 10	
COC(C)COc1cnc(NC(C)=O)cc1Nc1cc(C)nc(C(C)(F)F)n1 (centres unmarked) [Example 60, N-(4-((2-(1,1-difluoroethyl)-6-methylpyrimidin-4-yl)amino)-5-(2-methoxypropoxy)pyridin-2-yl)acetamide]	10 to 100	≤ 10			
CC(=O)Nc1cc(Nc2cc(C)nc(C(C)(F)F)n2)c(OCc2conc2C)cn1 [Example 335, N-(4-((2-(1,1-difluoroethyl)-6-methylpyrimidin-4-yl)amino)-5-((3-methylisoxazol-4-yl)methoxy)pyridin-2-yl)acetamide]	100 to 1000	≤ 10			
CC(=O)Nc1cc(Nc2cccc(C(C)(F)F)n2)c(-c2ccnc(C)n2)cn1 [Example 172, N-(4-((6-(1,1-difluoroethyl)pyridin-2-yl)amino)-5-(2-methylpyrimidin-4-yl)pyridin-2-yl)acetamide]	≤ 10	≤ 10			
CCS(=O)(=O)n1ccc(-c2cnc(NC(C)=O)cc2Nc2cc(C)nc(C(C)(F)F)n2)n1 [Example 542, N-(4-((2-(1,1-difluoroethyl)-6-methylpyrimidin-4-yl)amino)-5-(1-(ethylsulfonyl)-1H-pyrazol-3-yl)pyridin-2-yl)acetamide]	≤ 10				≤ 10
CC(=O)Nc1cc(Nc2ccnc(C(C)(F)F)n2)c(OC(C)C)cn1 [Example 8, N-(4-((2-(1,1-difluoroethyl)pyrimidin-4-yl)amino)-5-isopropoxypyridin-2-yl)acetamide]	100 to 1000	≤ 10			
CC(=O)Nc1cc(Nc2cc(C)nc(C(C)(F)F)n2)c(-c2coc(C)n2)cn1 [Example 578, N-(4-((2-(1,1-difluoroethyl)-6-methylpyrimidin-4-yl)amino)-5-(2-methyloxazol-4-yl)pyridin-2-yl)acetamide]	≤ 10				≤ 10
[2H]C([2H])([2H])N1CCn2nc(-c3cnc(NC(C)=O)cc3Nc3cc(C)nc(C(C)(F)F)n3)cc2C1 [Example 545, N-(4-((2-(1,1-difluoroethyl)-6-methylpyrimidin-4-yl)amino)-5-(5-(methyl-d3)-4,5,6,7-tetrahydropyrazolo[1,5-a]pyrazin-2-yl)pyridin-2-yl)acetamide]	≤ 10				≤ 10
COc1cc(Nc2cc(NC(C)=O)ncc2-c2ncc(F)cn2)nc(C(C)(F)F)n1 [Example 192, N-(4-((2-(1,1-difluoroethyl)-6-methoxypyrimidin-4-yl)amino)-5-(5-fluoropyrimidin-2-yl)pyridin-2-yl)acetamide]	10 to 100	≤ 10			
CC(=O)Nc1cc(Nc2ccnc(C(C)(F)F)n2)c(-c2ccc(CN3CC4(CCOC4)C3)cn2)cn1 [Example 889, N-(5-((6-oxa-2-azaspiro[3.4]octan-2-yl)methyl)-4′-((2-(1,1-difluoroethyl)pyrimidin-4-yl)amino)-[2,3′-bipyridin]-6′-yl)acetamide]			≤ 10	≤ 10	
COc1ccc(-c2cnc(NC(C)=O)cc2Nc2cccc(C(C)(F)F)n2)nn1 [Example 526, N-(4-((6-(1,1-difluoroethyl)pyridin-2-yl)amino)-5-(6-methoxypyridazin-3-yl)pyridin-2-yl)acetamide]	10 to 100				≤ 10
CCOc1cnc(NC(C)=O)cc1Nc1nc(C(C)(F)F)nc(C)c1F [Example 35, N-(4-((2-(1,1-difluoroethyl)-5-fluoro-6-methylpyrimidin-4-yl)amino)-5-ethoxypyridin-2-yl)acetamide]	100 to 1000	≤ 10			
CC(=O)Nc1cc(Nc2cccc(C(C)(F)F)n2)c(-c2ccn(C)c(=O)n2)cn1 [Example 160, N-(4-((6-(1,1-difluoroethyl)pyridin-2-yl)amino)-5-(1-methyl-2-oxo-1,2-dihydropyrimidin-4-yl)pyridin-2-yl)acetamide]	≤ 10	≤ 10			
CC(=O)Nc1cc(Nc2ccnc(C(C)(F)F)n2)c(-c2ccc3c(n2)CCC3=O)cn1 [Example 718, N-(4-((2-(1,1-difluoroethyl)pyrimidin-4-yl)amino)-5-(5-oxO6,7-dihydrO5H-cyclopenta[b]pyridin-2-yl)pyridin-2-yl)acetamide]	10 to 100				≤ 10
CC(=O)Nc1cc(Nc2ccnc(C(C)(F)F)n2)c(-c2cncc(OC(F)F)n2)cn1 [Example 689, N-(4-((2-(1,1-difluoroethyl)pyrimidin-4-yl)amino)-5-(6-(difluoromethoxy)pyrazin-2-yl)pyridin-2-yl)acetamide]	≥ 1000				10 to 100

SMILES	IC50 ([1]; MSD) [nM]	IC50 [2, 3] [nM]	IC50 [1] [nM]	IC50 [2, 4] [nM]	IC50 [2, 5] [nM]
CC(=O)Nc1cc(Nc2cc(C)nc(C(C)(F)F)n2)c(OCc2ccncc2)cn1 [Example 473, N-(4-((2-(1,1-difluoroethyl)-6-methylpyrimidin-4-yl)amino)-5-((pyridin-4-yl)methoxy)pyridin-2-yl)acetamide]	10 to 100				≤ 10
CC(=O)Nc1cc(Nc2cc(C)nc(C(C)(F)F)n2)c(OCC(C)OC(C)(C)C)cn1 (centres unmarked) [Example 427, N-(5-(2-(tert-butoxy)propoxy)-4-((2-(1,1-difluoroethyl)-6-methylpyrimidin-4-yl)amino)pyridin-2-yl)acetamide]	10 to 100				≤ 10
CCOc1cc(-c2cnc(NC(C)=O)cc2Nc2cc(C)nc(C(C)(F)F)n2)ncn1 [Example 243, N-(4-((2-(1,1-difluoroethyl)-6-methylpyrimidin-4-yl)amino)-5-(6-ethoxypyrimidin-4-yl)pyridin-2-yl)acetamide]	10 to 100	≤ 10			
COCCOc1cnc(NC(C)=O)cc1Nc1nccc(C(C)(F)F)n1 [Example 75, N-(4-((4-(1,1-difluoroethyl)pyrimidin-2-yl)amino)-5-(2-methoxyethoxy)pyridin-2-yl)acetamide]	100 to 1000	≤ 10			
[2H]C([2H])([2H])C(=O)Nc1cc(Nc2cc(C)nc(C(C)(F)F)n2)c(-c2ccc(OC)nn2)cn1 [Example 213, N-(4-((2-(1,1-difluoroethyl)-6-methylpyrimidin-4-yl)amino)-5-(6-methoxypyridazin-3-yl)pyridin-2-yl)acetamide-2,2,2-d3]	≤ 10	≤ 10			
CCOc1cnc(NC(C)=O)cc1Nc1cc(OC2CCC2)nc(C(C)(F)F)n1 [Example 462, N-(4-((6-cyclobutoxy-2-(1,1-difluoroethyl)pyrimidin-4-yl)amino)-5-ethoxypyridin-2-yl)acetamide]	≤ 10				≤ 10
COc1nc(C)cc(Nc2cc(NC(C)=O)ncc2-c2ccn(C)n2)n1 [Example 551, N-(4-((2-methoxy-6-methylpyrimidin-4-yl)amino)-5-(1-methyl-1H-pyrazol-3-yl)pyridin-2-yl)acetamide]	10 to 100				≤ 10
CC(=O)Nc1cc(Nc2cc(C)nc(C(C)(F)F)n2)c(OC(C)C2CC2)cn1 (centres unmarked) [Example 83, N-(5-(1-cyclopropylethoxy)-4-((2-(1,1-difluoroethyl)-6-methylpyrimidin-4-yl)amino)pyridin-2-yl)acetamide]	100 to 1000	≤ 10			
CC(=O)Nc1cc(Nc2cc(C)nc(C(C)(F)F)n2)c(-c2cnc(COC(F)F)cn2)cn1 [Example 662, N-(4-((2-(1,1-difluoroethyl)-6-methylpyrimidin-4-yl)amino)-5-(5-((difluoromethoxy)methyl)pyrazin-2-yl)pyridin-2-yl)acetamide]	10 to 100				≤ 10
CCc1cc(Nc2cc(NC(C)=O)ncc2-c2cnc(CN3C[C@H]4C[C@@H](C3)O4)cn2)nc(C(C)(F)F)n1 [Example 900, N-(5-(5-(((1R,5S)-6-oxa-3-azabicyclo[3.1.1]heptan-3-yl)methyl)pyrazin-2-yl)-4-((2-(1,1-difluoroethyl)-6-ethylpyrimidin-4-yl)amino)pyridin-2-yl)acetamide]			≤ 10	≤ 10	
CC(=O)Nc1cc(Nc2cc(C)nc(C(C)(F)F)n2)c(OCC2CC(=O)N(C(C)C)C2)cn1 (centres unmarked) [Example 510, N-(4-((2-(1,1-difluoroethyl)-6-methylpyrimidin-4-yl)amino)-5-((1-isopropyl-5-oxopyrrolidin-3-yl)methoxy)pyridin-2-yl)acetamide]	100 to 1000				≤ 10
CCn1cc(COc2cnc(NC(C)=O)cc2Nc2cc(C)nc(C(C)(F)F)n2)cn1 [Example 509, N-(4-((2-(1,1-difluoroethyl)-6-methylpyrimidin-4-yl)amino)-5-((1-ethyl-1H-pyrazol-4-yl)methoxy)pyridin-2-yl)acetamide]	10 to 100				≤ 10
CC(=O)Nc1cc(Nc2cc(C)nc(C(C)(F)F)n2)c(-c2ncc(C#N)cc2F)cn1 [Example 632, N-(5-cyanO4′-((2-(1,1-difluoroethyl)-6-methylpyrimidin-4-yl)amino)-3-fluorO[2,3′-bipyridin]-6′-yl)acetamide]	≥ 1000				10 to 100
CC(=O)Nc1cc(Nc2ccnc(C(C)(F)F)n2)c(-c2coc(C)n2)cn1 [Example 581, N-(4-((2-(1,1-difluoroethyl)pyrimidin-4-yl)amino)-5-(2-methyloxazol-4-yl)pyridin-2-yl)acetamide]	10 to 100				≤ 10
COc1cnc(NC(C)=O)cc1Nc1cc(-c2cnn(CCN(C)C)c2)nc(C(C)(F)F)n1 [Example 380, N-(4-((2-(1,1-difluoroethyl)-6-(1-(2-(dimethylamino)ethyl)-1H-pyrazol-4-yl)pyrimidin-4-yl)amino)-5-methoxypyridin-2-yl)acetamide]	10 to 100				≤ 10
